Results on 84 compounds are retold here after PubChem BioAssay AID1259418 (Broad Institute, 2018).

This assay addresses T. gondii ME49Luc in IFN-y HeLa, luciferase, 72 h. The assay can be described thus: T. gondii growth inhibition with IFN-gamma, dose response, cell-based, ME49Luc, HeLa, luciferase, 72 h (AID 1259418).

Structures are written as SMILES. Values joined by “and” are separate entries in the source; they are usually repeats but may differ in a detail not shown here. Equal entries are not always repeated. Inconclusive results are not listed. Active and inactive are the calls of the source.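 How the source made its calls: active means fitted half-maximal concentration of signal decrease at or below twice the sample's top tested concentration; inconclusive means flat curve between -70 and -30 percent, or poor fit; inactive means flat within 30 percent, signal rise, or potency above limit.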 A value given as a limit tells only on which side of the number the result lay.

The AC50 is the concentration at which the activity in the assay is half-maximal. Regarding `Cc1ccc(-c2noc(-c3ccc(N4CCC(N5CCCCC5)CC4)nc3)n2)cc1`, the AC50 was 24.8 µM. Take `CCOc1ccc(-c2nc(CN(c3ccc(OCC)cc3)S(=O)(=O)c3ccccc3)c(C)o2)cc1`: the AC50 is 17.1 µM. Consider `COc1cccc(-c2ccc3c(c2)[C@H]2[C@H](CCN2S(=O)(=O)c2ccccc2F)[C@H](CO)N3)c1`, for which the concentration at half-maximal activity (AC50) was 19.3 µM. For the compound `COc1ccc(-c2nc(NCCN3CCC(C)CC3)c3ccccc3n2)cc1`, the AC50 is 9.97 µM. As to `Cc1ccc(-c2csc(-c3cccn3CC(=O)NCCCN3CCCC(C)C3)n2)cc1` (centres undefined), the AC50 is 17.2 µM.

For `COCCC(=O)C1Cc2nc(-c3ccccc3)sc2N1CC1CC1` (centres undefined), the AC50 is 27.2 µM and 15.5 µM.

As for `COc1cccc(NC(=O)N2CC(=O)N3[C@H](CO)[C@@H](c4ccc(C#CCC5CCCC5)cc4)[C@H]3C2)c1`, the AC50 is > 39 µM (inactive).

Regarding `Clc1ccccc1CSc1nc(NCc2ccccc2)c2ccccc2n1`, the AC50 was > 39 µM (inactive). For the compound `CCc1nc(OCC(=O)Nc2ccccc2)c2ccccc2n1`, the AC50 is 27.7 µM. As to `COc1cccc(S(=O)(=O)N2CCCCN3[C@H](CO)[C@@H](c4ccc(C#CCC(C)C)cc4)[C@H]3C2)c1`, the AC50 is 24.9 µM and 10.3 µM and 9.5 µM. For the compound `COc1ccc(CNC(=O)CCC2N=C3c4ccccc4N=C(SCc4cccc(F)c4)N3C2=O)cc1` (centres undefined), the AC50 was 20.4 µM.

For the compound `CC(C)(C)c1ccc(S(=O)(=O)N2CCC[C@@H]2C(=O)NCCc2csc(-c3ccccc3)n2)cc1`, the AC50 is 4.48 µM. As for `COc1ccc(C#Cc2ccc([C@@H]3[C@H](CO)N4C(=O)CN(C(=O)NC(C)C)C[C@@H]34)cc2)cc1`, the concentration at half-maximal activity (AC50) is 28.3 µM.

Consider `Cn1ncnc1[C@H]1c2n[nH]c(=O)c3cc(F)cc(c23)N[C@@H]1c1ccc(F)cc1`, for which the concentration at half-maximal activity (AC50) was 38.6 µM. Consider `Clc1ccc(-c2nc(N3CCC(N4CCCCC4)CC3)c3ccccc3n2)cc1`, for which the AC50 is 18.4 µM. For the compound `COCCCN(Cc1ccco1)c1nc(-c2ccc(OC)cc2)nc2ccccc12`, the AC50 was 16.9 µM. Take `CC(C)n1c(C(=O)N2CCN(c3ccncc3)CC2)cc2c1c1ccccc1n2C`: the AC50 was 19.9 µM.

As to `COc1ccc(-c2nc(NCc3cccnc3)c3ccccc3n2)cc1`, the concentration at half-maximal activity (AC50) is 21.7 µM. As for `O=C(CCC1N=C2c3ccccc3N=C(SCc3ccccc3F)N2C1=O)NCc1cccs1` (centres undefined), the concentration at half-maximal activity (AC50) was 22.4 µM. Take `COc1ccc(-c2nc(CN(c3cccc(OC)c3)S(=O)(=O)c3ccc(C)cc3)c(C)o2)cc1`: the concentration at half-maximal activity (AC50) was 8.49 µM. In the case of `O=C(Cc1ccccn1)N1CC(=O)N2[C@@H](CO)[C@@H](c3ccc(C#CCC4CCCC4)cc3)[C@@H]2C1`, the AC50 is 13.2 µM. Consider `O=C(CC1N=C2c3ccccc3N=C(SCc3ccc(F)cc3)N2C1=O)NCCc1ccccc1` (centres undefined), for which the AC50 is 4.59 µM. Regarding `O=C(Cc1ccncc1)N1CCCCN2[C@@H](CO)[C@H](c3ccc(C#Cc4ccccc4F)cc3)[C@@H]2C1`, the AC50 is 13.5 µM and 17.9 µM. Then `OC(c1cc(C(F)(F)F)nc2c(C(F)(F)F)cccc12)C1CCCCN1` (centres undefined), with 6.5 µM. In the case of `CC(C)CNC(=O)c1nc2c(s1)CCN(C(=O)NCc1ccccc1)CC2`, the concentration at half-maximal activity (AC50) was 16.1 µM.

As to `COc1ccccc1N(Cc1nc(-c2cccc(C)c2)oc1C)S(=O)(=O)c1ccc(C)cc1`, the AC50 was 9.12 µM.

As for `COCCn1c(=S)[nH]c2cc(C(=O)N3CCC(O)(c4cccc(C(F)(F)F)c4)CC3)ccc2c1=O`, the AC50 is 34.1 µM. `Cc1ccc2c(c1)c(Cn1cc(-c3sccc3C)nn1)nn2C`: the AC50 was 20.2 µM and 28.7 µM.

With `COc1cccc(S(=O)(=O)N2CCCCN3[C@H](CO)[C@H](c4ccc(C#CCC(C)C)cc4)[C@H]3C2)c1`, the AC50 is 16.5 µM and 1.89 µM and 10.4 µM. For the compound `COc1ccccc1-c1nc(CN(c2ccc(C)cc2)S(=O)(=O)c2cccs2)c(C)o1`, the AC50 was 30.4 µM. Then `Cc1cccc(C(=O)Nc2c(C(=O)NCc3cccnc3)[nH]c3ccccc23)c1`, with > 39 µM (inactive); and `COc1ccccc1-c1nc(CN(c2ccccc2OC)S(=O)(=O)c2ccccc2C)c(C)o1`, with 6.87 µM.

For the compound `COc1ccc(-c2nc(Cn3nnc(-c4nc(-c5ccncc5)no4)c3C)c(C)o2)cc1`, the AC50 was > 39 µM (inactive). For the compound `O=S(=O)(c1ccc2c(c1)CCCC2)N1CCC2(CC1)NCCN=C2NC1CCCCC1`, the AC50 is 11.7 µM. Then `CCCCc1ccc(Nc2ncnc3c2cnn3-c2ccc(C)cc2C)cc1`, with 8.05 µM. For the compound `CC(C)(O)CC(=O)NCCn1ccc2ncnc(Nc3ccc(Oc4cccc(C(F)(F)F)c4)c(Cl)c3)c21`, the AC50 was 24.1 µM. Regarding `Cc1cc(C)cc(S(=O)(=O)N2CCC3(CC2)NCCN=C3NCc2ccc(C(F)(F)F)cc2)c1`, the half-maximal activity concentration (AC50) is 6.65 µM.

With `Cc1ccc(C)c(S(=O)(=O)N2CCC3(CC2)c2ncc(-c4cccc(F)c4)n2CCN3C)c1`, the AC50 was 20.9 µM. `O=C(CCC1N=C2c3ccccc3N=C(SCc3cccc(Cl)c3)N2C1=O)NCc1cccs1` (centres undefined): the concentration at half-maximal activity (AC50) was 5.48 µM. For the compound `CCCCC(CC)CNC(=O)CC1Nc2c3ccccc3nc(=S)n2C1=O` (centres undefined), the AC50 is 17.9 µM. Then `O=C1c2c(O)ccc(O)c2C(=O)c2c(NCCNCCO)ccc(NCCNCCO)c21`, with 0.128 µM; and `COc1cc(OC)cc(C(=O)N2CCC3(CC2)Nc2cc(OC)ccc2-n2cccc23)c1`, with 30.1 µM; and `O=C(NCCc1csc(-c2ccccc2)n1)C1CCN(S(=O)(=O)c2ccc(F)cc2)CC1`, with 11.4 µM. For `CCOc1ccccc1N(Cc1nc(-c2ccc(OC)cc2)oc1C)S(=O)(=O)c1cccs1`, the half-maximal activity concentration (AC50) was 7.45 µM. As to `COc1ccc(CNC2=NCCNC23CCN(S(=O)(=O)c2ccc(C)c(C)c2)CC3)cc1`, the AC50 was > 39 µM (inactive). For `COc1cccc(N(Cc2nc(-c3ccc(C)cc3)oc2C)S(=O)(=O)c2ccc(C)cc2)c1`, the AC50 was 7.83 µM. For the compound `Cc1ccccc1-c1ccc(C2[C@H]3CNC[C@@H]2N3Cc2ccc3c(c2)OCO3)cc1` (some centres undefined), the AC50 was > 39 µM (inactive). As to `O=C(Nc1cccnc1)c1cc(-c2cnc(-c3ccccc3)nc2)cn1CC1CC1`, the concentration at half-maximal activity (AC50) was 34.2 µM and 26.9 µM. With `COc1ccc(-c2nc(NCCCN3CCCCC3C)c3ccccc3n2)cc1` (centres undefined), the AC50 is 13.9 µM. For `COc1cc2nc(N3CCN(C(=O)c4ccco4)CC3)nc(N)c2cc1OC`, the AC50 is 18.4 µM.

Regarding `CCOc1ccccc1N(Cc1nc(-c2ccccc2)oc1C)S(=O)(=O)c1ccccc1`, the AC50 was 7.75 µM. For `COc1ccccc1CNC(=O)CC1N=C2c3ccccc3N=C(SCc3cc(=O)n4cc(Cl)ccc4n3)N2C1=O` (centres undefined), the AC50 is 29.6 µM. Then `O=C(NCCCN1CCCC1=O)C1CCN(Cc2cc3ccccc3n2Cc2cccc(F)c2)CC1`, with 30.3 µM; and `O=C(NCCc1csc(-c2ccccc2)n1)[C@H]1CCCN1C(=O)CCc1ccccc1`, with > 39 µM (inactive); and `COc1ccc(OCC(=O)N2CCC3(CC2)Nc2ccc(Cl)cc2-n2cccc23)cc1`, with > 39 µM (inactive). Turning to `O=C(NCCc1csc(-c2ccccc2)n1)C1CCN(S(=O)(=O)c2cccc(Cl)c2)CC1`, the AC50 is > 39 µM (inactive). As for `CC(C)CC#Cc1ccc([C@@H]2[C@H](CO)N3C(=O)CN(C(=O)c4cccc(F)c4)C[C@@H]23)cc1`, the AC50 was 18.2 µM. `COc1cccc(S(=O)(=O)N2CCCCN3[C@@H](CO)[C@@H](c4ccc(C#CCC(C)C)cc4)[C@@H]3C2)c1`: the half-maximal activity concentration (AC50) is 4.66 µM and 5.61 µM and 2.22 µM. Take `Cc1ccccc1S(=O)(=O)N1CC[C@H]2[C@H](CO)Nc3ccc(-c4ccc(F)cc4)cc3[C@H]21`: the AC50 was 28.5 µM. Take `O=C(Cc1ccncc1)N1CCCCN2[C@H](CO)[C@@H](c3ccc(C#Cc4ccccc4F)cc3)[C@H]2C1`: the AC50 is 18.5 µM.

With `CCc1cc(C(=O)Nc2ccc(C)cc2-c2cc(C)[nH]n2)c2c(C)noc2n1`, the AC50 is 11.8 µM. As to `Cc1ccc(S(=O)(=O)N2CCC3(CC2)NCCN=C3NCc2ccc(F)c(Cl)c2)c(C)c1`, the AC50 was 6.21 µM. Consider `CCC(=O)N1CCC2(CC1)Nc1ccc(Cl)cc1-n1cccc12`, for which the AC50 is 31 µM.

Consider `COc1cccc(-c2nc(C)c(-c3ccc(SCc4cccc(Cl)c4)nn3)s2)c1`, for which the AC50 is 11.1 µM. In the case of `CN(C)C(=O)c1ccc(-c2ccc3c(c2)[C@@H]2[C@@H](CCN2C(=O)C2CCCC2)[C@H](CO)N3C)cc1`, the concentration at half-maximal activity (AC50) was 20.6 µM. For the compound `C(=C\c1ccc(C2[C@@H]3CN(Cc4ccc5c(c4)OCO5)C[C@H]2N3)cc1)/c1ccccc1` (some centres undefined), the AC50 was 13.2 µM.

Take `CN(C)CCNC(=O)c1ccc2onc(-c3coc(C4CC4)n3)c2c1`: the AC50 was 21.3 µM. On to `COc1ccc(CNC(=O)COc2nc(C)nc3ccccc23)cc1`, for which the AC50 was > 39 µM (inactive). In the case of `C=CC[C@@H]1CC=C[C@@H](C)N1C(=O)CCn1c(C)cc(C)nc1=O`, the AC50 is 26.4 µM.

Regarding `COc1ccc(-c2nc(N(CCCN3CCOCC3)Cc3ccco3)c3ccccc3n2)cc1`, the half-maximal activity concentration (AC50) is 9.51 µM.

In the case of `COc1ccc(-c2nc3c(s2)CN(S(=O)(=O)c2ccccc2C)CC3)cc1`, the AC50 was 6.3 µM and 8.21 µM. Turning to `COc1ccccc1-c1nc(CN(c2ccccc2OC)S(=O)(=O)c2ccc(C)cc2)c(C)o1`, the AC50 was 12.4 µM.

Take `CN(C)C1CCN(Cc2cccc(C#N)c2)C(C(=O)O)C1` (centres undefined): the concentration at half-maximal activity (AC50) was 9.32 µM. As to `CCc1cnc(N2[C@H](CO)[C@@H](c3ccc(C#Cc4ccccc4F)cc3)[C@@H]2C#N)s1`, the AC50 was 21.3 µM.

Consider `Cc1cccc(-c2ccc(C3[C@@H]4CN(Cc5cccc(F)c5)C[C@H]3N4)cc2)c1` (some centres undefined), for which the AC50 is 26.2 µM.

`CCCN1CCc2nc(SCc3nc(-c4ccccc4OC)oc3C)[nH]c(=O)c2C1`: the AC50 was > 39 µM (inactive). `CN1C(=O)c2cc(NC(=O)c3cccc(F)c3)ccc2OC[C@H]2O[C@@H](CC(=O)NCC3CCCCC3)CC[C@@H]21`: the AC50 is 21.5 µM. Regarding `Fc1cccc(CN2C[C@@H]3N[C@H](C2)C3c2ccc(/C=C/c3ccccc3)cc2)c1` (some centres undefined), the AC50 is 12.1 µM and 17.5 µM. Take `Cc1nc(CCNC(=O)[C@H]2CCCN2C(=O)c2cccc(F)c2)cs1`: the half-maximal activity concentration (AC50) is 29.2 µM.

Regarding `Cc1ccc(-c2coc(-c3ccc(NC(=O)c4cccs4)cc3)n2)c(C)c1`, the AC50 is 13.8 µM. With `Fc1cccc(CSc2nc(NCc3ccc(Cl)cc3)c3ccccc3n2)c1`, the half-maximal activity concentration (AC50) is 14 µM. Then `COc1cccc(S(=O)(=O)N2CCCCN3[C@H](C2)[C@H](c2ccc(C#CCC(C)C)cc2)[C@@H]3CO)c1`, with 9.96 µM and 8.54 µM; and `Cc1cccc(CNC2=NCCNC23CCN(S(=O)(=O)c2ccc4c(c2)CCCC4)CC3)c1`, with 5.08 µM. Turning to `CCCNC(=O)N1[C@H](CO)[C@@H](c2ccc(-c3ccccc3F)cc2)[C@@H]1C#N`, the AC50 is 19.9 µM.
